Results from patent US20260306640A1, “TECHNOLOGIES TARGETING CELL STATES” (Auron Therapeutics, Inc., priority 2023, published 2026).

Tests used:
[1] = tested on: NCI-H1048 cells; assay: Cell growth inhibition (cell count, 8 days), small cell lung cancer NCI-H1048 cells; type: cell-based; conditions: Homo sapiens, 192 h, cell count relative to DMSO control after 8 days, FIG. 1 (C)
Protocol: FIG. 1. Provided compounds can provide various activities including inhibiting tumor growth in vivo. (A): Provided compounds can inhibit tumor growth in vivo. Nude Balb/c mice were inoculated with NCI-H1048 cells in Matrigel. Tumors were allowed to grow up to about 200 mm^3 and mice were then randomized into two groups. Mice were dosed intraperitoneally (i.p.) once per week with vehicle or 30 mg/kg compound 22. Tumor size was measured every three to four days and mice were sacrificed once vehicle tumors reached 2000 mm^3. Error bar is SEM. Dosing started at day 17 post tumor inoculation. (B): Provided technologies can reduce KAT2A and KAT2B levels and histone acetylation levels. […] Vehicle is DMSO. […] Cell count data relative to DMSO control after 8 days of treatment with compound 22 are presented as examples to confirm inhibition. GI50=6 nM. (D): Provided technologies can inhibit tumor growth in vivo. Nude balb/c mice inoculated with H1048 tumors were dosed intraperitoneally once per week (qw i.p.) with vehicle (HbCD) or compound 22. Average tumor volumes+/−SEM from 6 mice are represented. […] See also (A). […] Certain body weights relative to starting weight are presented as examples to confirm tolerability and safety. (F): Provided technologies can reduce KAT2A and KAT2B levels and histone acetylation levels in tumor in vivo. […]

[2] = tested on: histone acetylation; assay: Western blot of histone acetylation in acute myeloid leukemia MOLM-13 cells, 48 h; type: cell-based; conditions: FIG. 2 (A)
Protocol: (§1) FIG. 2. Provided compounds can provide various activities. (A): Provided technologies can reduce KAT2A and KAT2B levels and histone acetylation levels. […] Cell count data after 8 days of treatment with compound 22 relative to DMSO control are presented as examples to confirm inhibition. […] (C): Provided technologies can modulate cell states and induce differentiation. […] EC50=0.3 nM.

[3] = tested on: MOLM-13 cells; assay: Cell growth inhibition (cell count, 8 days), MOLM-13 cells; type: cell-based; conditions: Homo sapiens, 192 h, cell count after 8 days relative to DMSO control, FIG. 2 (B)
Protocol: as §1

[4] = tested on: LASCPC-01 cells; assay: Cell viability (Cell Titer Glo, 7 days), LASCPC-01 cells; type: cell-based; conditions: 168 h, Cell Titer Glo relative to DMSO control after 7 days, FIG. 3 (B)
Protocol: (§2) FIG. 3. Provided compounds can provide various activities. (A): Provided technologies can reduce KAT2A and KAT2B levels and histone acetylation levels. […] Cell viability (Cell Titer Glo) data relative to DMSO control after 7 days of treatment with compound 22 are presented as examples to confirm inhibition. GI50=5 nM. (C): Provided technologies can modulate cell states and induce differentiation. […] (D): Provided technologies can reduce KAT2A and KAT2B levels and histone acetylation levels including in neuroendocrine prostate cancer primary patient organoid. […] Concentrations are nM. […] Cell viability data relative to DMSO control after 21 days of treatment with compound 22 are presented as examples to confirm inhibition. GI50=3 nM. (F): Provided technologies can modulate cell states and induce differentiation.

[5] = tested on: histone acetylation (e.g., AcH3K9); assay: Histone H3K9 acetylation (AcH3K9), Western Blot, NCI-H1048 cells; type: cell-based, human; conditions: FIG. 1
Protocol: (§3) In some embodiments, an assessment is performed using cells. In some embodiments, cells were treated with various compounds before assessing KAT2A and/or KAT2B levels, histone (e.g., H3K9) acetylation levels, cell states, growth, etc.
(§4) Western Blot: In some assessments, MOLM13, NCI-H1048, LASCPC-01 and NEPC organoid cells were treated with compounds at certain concentrations for certain periods of time, and cell pellets were lysed by adding 1-part 4×laemmli Sample buffer (e.g., Bio-Rad Catalog #1610747) along with Mercaptoethanol (e.g., Bio-Rad Catalog #1610710) according to manufacturer's instructions, and 1-part RIPA buffer with 2×protease and phosphatase inhibitor. The samples were sonicated 30% amplitude, 35 seconds on and 35 seconds off for 1 cycle and boiled at 95° C. for 5 minutes. 30-35 μL of samples were loaded on a 4-15% Criterion™ TGX Stain-Free™ Protein Gel (Bio-rad, 5678084). In some assessments, NCI-H1048 flash frozen tumor pieces were resuspended in RIPA buffer and homogenized on TissueLyser II with steel beads at 30 Hz for 3 minutes. Samples were then centrifuged at […] at 4° C. for 15 minutes. BCA protein determination was performed and samples normalized for 1.95 ug/uL. 19.5 uL were loaded and run on similar gels as cell pellets. […]

[6] = tested on: histone acetylation (e.g., AcH3K9); assay: Histone H3K9 acetylation (AcH3K9), Western Blot, LASCPC-01 cells; type: cell-based; conditions: FIG. 3
Protocol: as §3, §4

[7] = biological target: T1, KAT2B (Homo sapiens, UniProt Q92831); assay: Western blot of KAT2B level in acute myeloid leukemia MOLM-13 cells, 48 h; type: cell-based; design: degrader, Western blot; conditions: FIG. 2 (A)
Protocol: as §1

[8] = biological target: T1, KAT2B; assay: Western blot of KAT2B level in neuroendocrine prostate cancer LASCPC-01 cells, 24 hours; type: cell-based; design: degrader, Western blot; conditions: FIG. 3 (A)
Protocol: as §2

T1 sequence (Q92831 whole entry): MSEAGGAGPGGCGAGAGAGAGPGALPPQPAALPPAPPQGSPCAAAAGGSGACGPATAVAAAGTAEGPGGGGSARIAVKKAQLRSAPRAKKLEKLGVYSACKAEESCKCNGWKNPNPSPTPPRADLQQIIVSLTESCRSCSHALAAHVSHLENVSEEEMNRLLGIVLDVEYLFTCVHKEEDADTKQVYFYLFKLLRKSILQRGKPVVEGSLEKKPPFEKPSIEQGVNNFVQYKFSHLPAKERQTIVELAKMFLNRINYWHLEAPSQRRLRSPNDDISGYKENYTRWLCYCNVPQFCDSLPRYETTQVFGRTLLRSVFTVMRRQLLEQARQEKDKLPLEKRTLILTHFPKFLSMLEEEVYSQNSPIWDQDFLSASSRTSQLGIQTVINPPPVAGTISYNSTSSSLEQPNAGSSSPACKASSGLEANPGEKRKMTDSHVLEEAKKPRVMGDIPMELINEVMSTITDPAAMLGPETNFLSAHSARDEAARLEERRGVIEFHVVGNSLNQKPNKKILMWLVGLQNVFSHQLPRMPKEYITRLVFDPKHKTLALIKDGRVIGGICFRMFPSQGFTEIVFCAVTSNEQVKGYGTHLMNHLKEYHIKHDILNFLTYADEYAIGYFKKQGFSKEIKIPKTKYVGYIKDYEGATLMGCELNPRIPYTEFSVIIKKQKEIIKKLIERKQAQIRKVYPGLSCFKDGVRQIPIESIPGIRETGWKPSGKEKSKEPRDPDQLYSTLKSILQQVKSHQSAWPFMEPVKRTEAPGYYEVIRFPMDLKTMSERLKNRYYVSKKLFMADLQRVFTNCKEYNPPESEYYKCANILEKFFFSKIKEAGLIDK

GI50 [1]: 6 nM
GI50 [3]: 1.2 nM
reduction of KAT2B level [7]: confirm such reduction
reduction of KAT2B level [8]: confirm such reduction
SMILES: CN1C[C@H](Nc2cnn(C)c(=O)c2Br)C[C@H](c2ccc(C(=O)N3CCC(CN4CCN(c5ccc6c(c5)CN(C5CCC(=O)NC5=O)C6=O)CC4)CC3)cc2)C1 (stereo partly drawn) [Compound 22, 3-(5-(4-((1-(4-((3R,5R)-5-((5-bromo-1-methyl-6-oxo-1,6-dihydropyridazin-4-yl)amino)-1-methylpiperidin-3-yl)benzoyl)piperidin-4-yl)methyl)piperazin-1-yl)-1-oxoisoindolin-2-yl)piperidine-2,6-dione]
reduction of histone acetylation level [2]: confirm such reduction
GI50 [4]: 5 nM
histone acetylation (e.g., AcH3K9) levels [5]: reduce histone acetylation (e.g., AcH3K9) levels
histone acetylation (e.g., AcH3K9) levels [6]: reduce histone acetylation (e.g., AcH3K9) levels
